Results reported in US20150238601A1, “TREATMENT OF OCULAR DISORDERS” (KADMON CORPORATION, LLC, priority 2012, published 2015).
Structures can show the parent of a compound that is named as a salt. Where two headings read alike, the source gives them in different places.

What was measured:
[1] = biological target: T1, ROCK1 (Homo sapiens, UniProt Q13464); assay: biochemical
Description: Dose response curves for Rho-kinase inhibition were derived from a Millipore immuno-based 96 well plate assay (Millipore catalog number CSA001). Purified active ROCK1 and ROCK2 were obtained from Invitrogen (catalog numbers ROCKI, PV3691 and ROCK2, PV3759). The kit components include assay plates, which are pre-coated with recombinant MYPT1, which contains a specifically phosphorylatable Thr696. The inhibitory activities of compounds are measured according to the manufactures protocol. […] The assay proceeds at 300 Celsius for 30 minutes with gentle shaking at 120 rpm. The assay is terminated by washing of the plate 3 times with Tris-buffered saline and tween wash buffer. Anti-phospho-MYPT1 (Thr696) antibody is added to each well to detect the phosphorylated substrate and incubated for 1 hour at room temperature after which HRP conjugated anti-rabbit IgG secondary is added for 1 hour at room temperature. After washing the assay is developed using a substrate reagent and the absorbance is read at 450 nm on a Tecan Infinite M1000 reflecting the relative remaining ROCK phosphorylation activity.

[2] = biological target: T2, ROCK2 (Homo sapiens, UniProt O75116); assay: Invitrogen Z'-LYTE Kinase Assay; format: biochemical
T2 construct: purchased Invitrogen PV3759
Description: (§2) Dose response curves for Rho-kinase inhibition were derived from a Invitrogen Z′-LYTE™ Kinase Assay Kit (Invitrogen catalog number PV3793). Purified active ROCK1 and ROCK2 were obtained from Invitrogen (catalog numbers ROCK1, PV3691 and ROCK2, PV3759). The kit components include a coumarin and fluorescein labeled peptide based on myosin light chain 2 ([sequence]), a proprietary protease containing development reagent and a proprietary Stop buffer used to terminate the development reaction. The inhibitory activities of compounds are measured according to the manufactures protocol. […] The assay proceeds at room temperature for 1 hour followed by the addition of development reagent, and further incubation for 1 hour at room temperature. […] By comparing the emission ratios of the test samples against control samples, percent phosphorylation values are calculated and the concentration of inhibitor that produces 1/2 inhibition of kinase activity (IC50) is determined using Prism.

[3] = test system: subfoveal choroidal neovascularization (CNV) lesion secondary to AMD; assay: study in subjects with subfoveal CNV lesion secondary to AMD; format: in vivo, human; settings: Example 43 with Mab 106 vs Mab 106, six months
Description: A study is conducted of 50 men and women having subfoveal choroidal neovascularization (CNV) lesion secondary to AMD. […] Subjects are observed over six months to determine intraocular inflammation, macular thickness, and the status of macular perfusion. Visual acuity is also measured over the time period.

[4] = biological target: T1, ROCK1; assay: Invitrogen Z'-LYTE Kinase Assay; format: biochemical; design: purchased Invitrogen PV3691; settings: 5 uM ATP, ROCK1 0.18 ug/mL
Description: as §2

[5] = test system: proliferative diabetic retinopathy; assay: preoperative treatment of proliferative diabetic retinopathy / diabetic macular edema; format: in vivo, human; settings: with pegaptanib, compared to pegaptanib alone, intravitreal, 8 weeks after surgery
Description: The agents are administered by intravitreal injection. Subjects are evaluated over 8 weeks following surgery as to post operative rebleed, macular edema post injection, and pre- and post-injection levels of VEGF165. It is expected that compared to pegaptanib alone, administration of compound 154 results in reduced bleeding and macular edema.

[6] = test system: CD4+ human T cells; assay: cytokine secretion of anti-CD3/CD28 stimulated CD4+ T cells in vitro; format: cell-based; settings: anti-CD3/CD28 stimulation
Excerpt: (§1) Activation of resting T cells, resulting in cytokine secretion and proliferation, involves two distinct signals from antigen-presenting cells (APCs), mimicked by co-stimulation of the T cell receptor (TCR)/CD3 complex and the CD28 receptor.

[7] = test system: STAT3 phosphorylation; assay: STAT3 phosphorylation in T cells; format: cell-based
Description: STAT3 plays a critical role in Th17 differentiation via regulation of RORγt expression and direct binding to the IL-17 and IL-21 promoters. […] In a different experiment, cells we cultured under Th17-skewing conditions for 5 days and then treated with the ROCK2 selective inhibitor for 3 hours.

[8] = test system: CD4+ human T cells; assay: T cell proliferation in response to TCR stimulation in vitro; format: cell-based
Excerpt: as §1

[9] = test system: CD4+ T cells from peripheral blood of RA patients; assay: CD4+ T cells of RA patients stimulated with anti-CD3/CD28 ex vivo; format: cell-based, human
[10] = Z'-LYTE, 12 uM ATP, ROCK2 0.8 ug/mL, read-out: ROCK2 IC50
[11] = 2 RA patients, intracellular staining
[12] = RA patients, ex vivo, TCR stimulation

T1 sequence (Q13464 whole entry): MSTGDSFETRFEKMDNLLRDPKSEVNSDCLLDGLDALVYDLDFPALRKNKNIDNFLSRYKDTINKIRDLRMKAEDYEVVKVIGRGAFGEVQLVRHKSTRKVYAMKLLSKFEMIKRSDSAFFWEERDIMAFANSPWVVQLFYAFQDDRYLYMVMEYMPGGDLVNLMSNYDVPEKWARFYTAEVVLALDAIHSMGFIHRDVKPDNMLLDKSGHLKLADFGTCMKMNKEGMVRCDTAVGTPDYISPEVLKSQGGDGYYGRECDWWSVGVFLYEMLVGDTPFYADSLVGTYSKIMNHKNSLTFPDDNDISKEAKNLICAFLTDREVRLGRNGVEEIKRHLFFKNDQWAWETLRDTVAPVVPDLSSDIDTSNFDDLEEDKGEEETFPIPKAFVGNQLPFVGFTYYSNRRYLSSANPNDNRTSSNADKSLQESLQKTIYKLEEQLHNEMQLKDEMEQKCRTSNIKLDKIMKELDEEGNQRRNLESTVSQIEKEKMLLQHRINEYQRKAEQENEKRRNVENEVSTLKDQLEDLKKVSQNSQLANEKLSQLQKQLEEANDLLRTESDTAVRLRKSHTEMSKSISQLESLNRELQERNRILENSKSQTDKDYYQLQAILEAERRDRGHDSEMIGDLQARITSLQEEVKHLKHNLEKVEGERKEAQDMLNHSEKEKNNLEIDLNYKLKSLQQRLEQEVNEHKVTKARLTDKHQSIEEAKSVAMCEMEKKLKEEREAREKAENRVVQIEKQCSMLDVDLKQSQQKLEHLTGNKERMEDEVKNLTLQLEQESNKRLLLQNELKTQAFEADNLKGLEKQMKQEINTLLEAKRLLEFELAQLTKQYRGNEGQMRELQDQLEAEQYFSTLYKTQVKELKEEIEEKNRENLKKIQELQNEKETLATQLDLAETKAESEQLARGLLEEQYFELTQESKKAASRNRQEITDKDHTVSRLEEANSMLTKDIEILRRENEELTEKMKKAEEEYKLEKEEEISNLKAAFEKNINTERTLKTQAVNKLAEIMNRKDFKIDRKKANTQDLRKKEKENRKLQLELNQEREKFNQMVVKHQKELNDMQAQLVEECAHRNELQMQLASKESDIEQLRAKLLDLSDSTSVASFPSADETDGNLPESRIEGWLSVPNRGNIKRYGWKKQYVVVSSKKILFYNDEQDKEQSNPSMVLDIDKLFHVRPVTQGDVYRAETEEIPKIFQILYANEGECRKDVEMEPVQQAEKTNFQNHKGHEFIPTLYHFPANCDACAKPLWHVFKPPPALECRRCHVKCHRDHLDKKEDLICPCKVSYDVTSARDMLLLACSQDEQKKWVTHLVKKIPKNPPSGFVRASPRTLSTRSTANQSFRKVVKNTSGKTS
T2 sequence (O75116 whole entry): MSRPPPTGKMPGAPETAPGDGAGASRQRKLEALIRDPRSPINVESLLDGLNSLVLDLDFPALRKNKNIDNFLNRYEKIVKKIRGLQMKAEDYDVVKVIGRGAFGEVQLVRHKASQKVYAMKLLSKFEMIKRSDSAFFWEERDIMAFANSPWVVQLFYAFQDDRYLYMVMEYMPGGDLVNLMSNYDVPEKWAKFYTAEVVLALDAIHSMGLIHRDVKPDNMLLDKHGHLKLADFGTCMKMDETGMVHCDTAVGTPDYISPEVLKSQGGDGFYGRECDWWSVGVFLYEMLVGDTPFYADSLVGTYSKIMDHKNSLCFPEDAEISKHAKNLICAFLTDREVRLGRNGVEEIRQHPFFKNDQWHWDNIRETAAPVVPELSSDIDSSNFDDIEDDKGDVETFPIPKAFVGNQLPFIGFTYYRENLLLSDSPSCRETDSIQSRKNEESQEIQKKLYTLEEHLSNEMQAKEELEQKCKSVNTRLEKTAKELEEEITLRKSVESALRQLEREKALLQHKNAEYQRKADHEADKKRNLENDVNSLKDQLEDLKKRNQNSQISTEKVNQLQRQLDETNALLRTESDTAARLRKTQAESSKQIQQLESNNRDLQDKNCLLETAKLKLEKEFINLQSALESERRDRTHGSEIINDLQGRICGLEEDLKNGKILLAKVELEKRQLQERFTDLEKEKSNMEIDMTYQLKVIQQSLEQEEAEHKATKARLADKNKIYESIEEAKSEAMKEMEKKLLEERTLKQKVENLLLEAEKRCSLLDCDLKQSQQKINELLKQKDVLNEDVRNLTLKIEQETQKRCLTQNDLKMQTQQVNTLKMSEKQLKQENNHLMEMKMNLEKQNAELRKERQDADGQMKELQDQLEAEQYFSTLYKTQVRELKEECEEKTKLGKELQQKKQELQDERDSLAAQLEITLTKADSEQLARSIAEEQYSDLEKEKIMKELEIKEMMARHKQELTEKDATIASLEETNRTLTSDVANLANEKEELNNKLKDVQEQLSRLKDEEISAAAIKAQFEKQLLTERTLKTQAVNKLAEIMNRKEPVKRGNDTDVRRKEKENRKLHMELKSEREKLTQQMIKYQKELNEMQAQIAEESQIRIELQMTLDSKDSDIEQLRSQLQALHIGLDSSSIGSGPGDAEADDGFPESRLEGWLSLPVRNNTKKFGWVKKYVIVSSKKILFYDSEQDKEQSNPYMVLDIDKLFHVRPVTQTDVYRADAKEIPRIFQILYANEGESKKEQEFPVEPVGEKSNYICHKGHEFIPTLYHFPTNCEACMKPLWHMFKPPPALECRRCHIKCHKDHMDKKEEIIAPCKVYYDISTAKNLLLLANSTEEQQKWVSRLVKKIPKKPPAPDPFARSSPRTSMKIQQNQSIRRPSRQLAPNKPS

Q: Which results are given for `O=C(COc1cccc(-c2nccc(Nc3ccc4[nH]ncc4c3)n2)c1)N[C@@H]1CCNC1` [Example 12, (R)-2-(3-(4-((1H-indazol-5-yl)amino)pyrimidin-2-yl)phenoxy)-N-(pyrrolidin-3-yl)acetamide HCl salt]?
A: IC50 [1]: 1.77 µM; Ki [1]: 0.07 µM

Q: Which results are given for `CC(C)NC(=O)COc1cccc(-c2ncc(OCCN(C)C)c(Nc3ccc4[nH]ncc4c3)n2)c1` [Example 43, 2-(3-(4-((1H-indazol-5-yl)amino)-5-(2-(dimethylamino)ethoxy)pyrimidin-2-yl)phenoxy)-N-isopropylacetamide TFA salt]?
A: IC50 [2, 10]: 0.025 µM; intraocular inflammation [3]: less; macular perfusion [3]: less; IC50 [4]: 0.75 µM

Q: Which IC50 [2, 10] does the source give for `CC(C)NC(=O)COc1cccc(-c2nc(Nc3ccc4[nH]ncc4c3)cc(N3CCCNCC3)n2)c1` [Example 121, 2-(3-(4-((1H-indazol-5-yl)amino)-6-(1,4-diazepan-1-yl)pyrimidin-2-yl)phenoxy)-N-isopropylacetamide] here?
A: 0.013 µM

Q: What about the IC50 [4] of the same compound?
A: 1.39 µM

Q: `O=C(Oc1cccc(-c2nccc(Nc3ccc4[nH]ncc4c3)n2)c1)N1CCOCC1` [Example 129, 3-(4-((1H-indazol-5-yl)amino)pyrimidin-2-yl)phenyl morpholine-4-carboxylate] was tested. Which IC50 [2, 10] did it give?
A: 0.01 µM

Q: What about the IC50 [4] of the same compound?
A: 1.1 µM

Q: Which IC50 [2] does the source give for `CN(C)C(=O)Oc1cccc(-c2nccc(Nc3ccc4[nH]ncc4c3)n2)c1` [Example 131, 3-(4-((1H-indazol-5-yl)amino)pyrimidin-2-yl)phenyl dimethylcarbamate] here?
A: 0.039 µM

Q: With `c1cc(OCc2ccncc2)cc(-c2nccc(Nc3ccc4[nH]ncc4c3)n2)c1` [Example 136, N-(2-(3-(pyridin-4-ylmethoxy)phenyl)pyrimidin-4-yl)-1H-indazol-5-amine] as the compound, how does the IC50 [4] read?
A: 0.17 µM

Q: How did the IC50 [2, 10] turn out when `COCCOc1cccc(-c2nccc(Nc3ccc4[nH]ncc4c3)n2)c1` [Example 138, N-(2-(3-(2-methoxyethoxyl)phenyl)pyrimidin-4-yl)-1H-indazol-5-amine] was run?
A: 0.008 µM

Q: And the IC50 [4]?
A: 1.98 µM

Q: Which IC50 [2, 10] does the source give for `COc1cccc(-c2nccc(Nc3ccc4[nH]ncc4c3)n2)c1` [Example 140, N-(2-(3-methoxyphenyl)pyrimidin-4-yl)-1H-indazol-5-amine] here?
A: 0.055 µM

Q: What about the IC50 [4] of the same compound?
A: 1.91 µM

Q: `c1cc(OCCN2CCOCC2)cc(-c2nccc(Nc3ccc4[nH]ncc4c3)n2)c1` [Example 144, N-(2-(3-(2-morpholinoethoxyl)phenyl)pyrimidin-4-yl)-1H-indazol-5-amine] was tested. Which IC50 [2, 10] did it give?
A: 0.058 µM

Q: And the IC50 [4]?
A: 1.93 µM

Q: Which results are given for `CC(N)c1cccc(-c2nccc(Nc3ccc4[nH]ncc4c3)n2)c1` (centres unmarked) [Example 147, N-(2-(3-(1-aminoethyl)phenyl)pyrimidin-4-yl)-1H-indazol-5-amine]?
A: IC50 [2, 10]: > 5.5 µM; IC50 [4]: > 2 µM

Q: Which “bleeding (post operative rebleed)” value [5] does the source give for `CC(C)NCCOc1cccc(-c2nccc(Nc3ccc4[nH]ncc4c3)n2)c1` [Example 154, N-(2-(3-(2-(isopropylamino)ethoxy)phenyl)pyrimidin-4-yl)-1H-indazol-5-amine] here?
A: reduced

Q: What about the macular edema [5] of the same compound?
A: reduced

Q: How did the IC50 [2, 10] turn out when `CC(C)NC(=O)COc1cccc(-c2nc(Nc3ccc4[nH]ncc4c3)cc(C(F)(F)F)n2)c1` [Example 169] was run?
A: > 10 µM

Q: What about the IC50 [4] of the same compound?
A: > 10 µM

Q: How did the IL-17 secretion ([6]; dose-dependent) turn out when `CC(C)NC(=O)COc1cccc(-c2nc(Nc3ccc4[nH]ncc4c3)c3ccccc3n2)c1` [SLx-2119] was run?
A: significantly inhibited

Q: And the IL-21 secretion ([6]; dose-dependent)?
A: significantly inhibited

Q: And the “inhibition of IFN-γ secretion” value ([6]; high dose 10 μM)?
A: less robust and significant only at high dose

Q: And the “phosphorylation of STAT3” value ([7]; T cells pre-treated, then stimulated with anti-CD3/CD28 antibodies)?
A: reduced

Q: And the STAT3 phosphorylation ([7]; Th17-skewing conditions 5 days, then treated 3 hours)?
A: reduced

Q: What about the “ability of T cells to proliferate in response to TCR stimulation” value [8] of the same compound?
A: down-regulated

Q: And the “frequency of IFN-γ-producing cells” value [9, 11]?
A: significantly reduced

Q: And the “frequency of IL-17-producing cells” value [9, 11]?
A: significantly reduced

Q: What about the IFN-γ secretion [9, 12] of the same compound?
A: significantly down-regulated

Q: What about the IL-17 secretion [9, 12] of the same compound?
A: significantly down-regulated

Q: And the IL-21 secretion [9, 12]?
A: significantly down-regulated
